Assay results reported in the NIST ThermoML archive (doi:10.1021/acs.jced.7b00221).

Test: xn = mol fraction of the nth substance listed
Details: 100 kPa, Liquid; for viscosity: Cone and plate viscometry; for mass density: Vibrating tube method

CCn1cc[n+](C)c1.O=S(=O)([N-]S(=O)(=O)C(F)(F)F)C(F)(F)F + CCCCCC[n+]1ccn(C)c1.O=S(=O)([N-]S(=O)(=O)C(F)(F)F)C(F)(F)F
Details	mass density [kg/m3]	viscosity [mPa·s]
278.15 K, x2 = 0	–	80
278.15 K, x2 = 0.15	–	89
278.15 K, x2 = 0.3	–	95
278.15 K, x2 = 0.5	–	120
278.15 K, x2 = 0.7	–	153
278.15 K, x2 = 0.85	–	181
283.15 K, x2 = 0	1534.1	63
283.15 K, x2 = 0.15	1507.1	70
283.15 K, x2 = 0.3	1481.8	74
283.15 K, x2 = 0.5	1451	92
283.15 K, x2 = 0.7	1422.9	116
283.15 K, x2 = 0.85	1403.6	135
288.15 K, x2 = 0	1529	50
288.15 K, x2 = 0.15	1502.1	56
288.15 K, x2 = 0.3	1476.9	58
288.15 K, x2 = 0.5	1446.3	72
288.15 K, x2 = 0.7	1418.2	89
288.15 K, x2 = 0.85	1399	102
293.15 K, x2 = 0	1523.9	–
293.15 K, x2 = 0.15	1497.1	–
293.15 K, x2 = 0.3	1472	–
293.15 K, x2 = 0.5	1441.5	58
293.15 K, x2 = 0.7	1413.5	70
293.15 K, x2 = 0.85	1394.4	79
295.15 K, x2 = 0	1521.9	–
295.15 K, x2 = 0.15	1495.1	–
295.15 K, x2 = 0.3	1470.1	–
295.15 K, x2 = 0.5	1439.6	–
295.15 K, x2 = 0.7	1411.6	–
295.15 K, x2 = 0.85	1392.5	–
298.15 K, x2 = 0	1518.9	–
298.15 K, x2 = 0.15	1492.2	–
298.15 K, x2 = 0.3	1467.2	–
298.15 K, x2 = 0.5	1436.7	–
298.15 K, x2 = 0.7	1408.8	57
298.15 K, x2 = 0.85	1389.7	63
303.15 K, x2 = 0	1513.9	–
303.15 K, x2 = 0.15	1487.2	–
303.15 K, x2 = 0.3	1462.3	–
303.15 K, x2 = 0.5	1431.9	–
303.15 K, x2 = 0.7	1404.1	–
303.15 K, x2 = 0.85	1385.1	51
308.15 K, x2 = 0	1508.9	–
308.15 K, x2 = 0.15	1482.3	–
308.15 K, x2 = 0.3	1457.5	–
308.15 K, x2 = 0.5	1427.2	–
308.15 K, x2 = 0.7	1399.5	–
308.15 K, x2 = 0.85	1380.5	–
313.15 K, x2 = 0	1503.9	–
313.15 K, x2 = 0.15	1477.4	–
313.15 K, x2 = 0.3	1452.7	–
313.15 K, x2 = 0.5	1422.5	–
313.15 K, x2 = 0.7	1394.8	–
313.15 K, x2 = 0.85	1375.9	–
318.15 K, x2 = 0	1499	–
318.15 K, x2 = 0.15	1472.5	–
318.15 K, x2 = 0.3	1447.9	–
318.15 K, x2 = 0.5	1417.8	–
318.15 K, x2 = 0.7	1390.1	–
318.15 K, x2 = 0.85	1371.3	–
323.15 K, x2 = 0	1494.1	–
323.15 K, x2 = 0.15	1467.7	–
323.15 K, x2 = 0.3	1443.1	–
323.15 K, x2 = 0.5	1413.1	–
323.15 K, x2 = 0.7	1385.5	–
323.15 K, x2 = 0.85	1366.8	–
328.15 K, x2 = 0	1489.1	–
328.15 K, x2 = 0.15	1462.8	–
328.15 K, x2 = 0.3	1438.3	–
328.15 K, x2 = 0.5	1408.4	–
328.15 K, x2 = 0.7	1380.9	–
328.15 K, x2 = 0.85	1362.2	–
333.15 K, x2 = 0	1484.2	–
333.15 K, x2 = 0.15	1458	–
333.15 K, x2 = 0.3	1433.5	–
333.15 K, x2 = 0.5	1403.7	–
333.15 K, x2 = 0.7	1376.2	–
333.15 K, x2 = 0.85	1357.7	–
338.15 K, x2 = 0	1479.3	–
338.15 K, x2 = 0.15	1453.2	–
338.15 K, x2 = 0.3	1428.8	–
338.15 K, x2 = 0.5	1399	–
338.15 K, x2 = 0.7	1371.6	–
338.15 K, x2 = 0.85	1353.2	–
343.15 K, x2 = 0	1474.4	–
343.15 K, x2 = 0.15	1448.4	–
343.15 K, x2 = 0.3	1424.1	–
343.15 K, x2 = 0.5	1394.4	–
343.15 K, x2 = 0.7	1367	–
343.15 K, x2 = 0.85	1348.6	–
348.15 K, x2 = 0	1469.6	–
348.15 K, x2 = 0.15	1443.6	–
348.15 K, x2 = 0.3	1419.4	–
348.15 K, x2 = 0.5	1389.8	–
348.15 K, x2 = 0.7	1362.3	–
348.15 K, x2 = 0.85	1344.1	–
353.15 K, x2 = 0	1464.7	–
353.15 K, x2 = 0.15	1438.8	–
353.15 K, x2 = 0.3	1414.7	–
353.15 K, x2 = 0.5	1385.2	–
353.15 K, x2 = 0.7	1357.7	–
353.15 K, x2 = 0.85	1339.7	–

CCCCCCn1cc[n+](C)c1C.O=[N+]([O-])c1cn[n-]c1 [1-hexyl-2,3-dimethylimidazolium 4-nitropyrazolide] + CCCCCCCCCCCCCC[P+](CCCCCC)(CCCCCC)CCCCCC.O=S(=O)([N-]S(=O)(=O)C(F)(F)F)C(F)(F)F
Details	mass density, x1 = 0.25 [kg/m3]	mass density, x1 = 0.501 [kg/m3]	mass density, x1 = 0.749 [kg/m3]	viscosity, x1 = 0.098 [mPa·s]	viscosity, x1 = 0.303 [mPa·s]	viscosity, x1 = 0.5 [mPa·s]	viscosity, x1 = 0.7 [mPa·s]	viscosity, x1 = 0.898 [mPa·s]
278.15 K	–	–	–	1280	1562	2212	3692	7584
283.15 K	1081.8	1090.2	1104.2	871	1040	1418	2223	4009
288.15 K	1078.2	1086.7	1100.5	606	707	933	1385	2241
293.15 K	1074.6	1083.2	1097	434	495	636	897	1330
295.15 K	1073.2	1081.7	1095.7	–	–	–	–	–
298.15 K	1071.1	1079.7	1093.6	319	357	447	605	830
303.15 K	1067.5	1076.2	1090.3	239	264	324	422	545
308.15 K	1063.9	1072.7	1086.9	184	200	240	304	373
313.15 K	1060.4	1069.3	1083.5	144	154	182	223	263
318.15 K	1057	1065.9	1080.2	115	121	142	169	192
323.15 K	1053.5	1062.6	1077	93	97	112	131	144
328.15 K	1050	1059.2	1073.7	–	–	–	–	–
333.15 K	1046.5	1055.8	1070.5	–	–	–	–	–
338.15 K	1043	1052.4	1067.2	–	–	–	–	–
343.15 K	1039.5	1049	1064	–	–	–	–	–
348.15 K	1036.1	1045.7	1060.7	–	–	–	–	–
353.15 K	1032.6	1042.3	1057.5	–	–	–	–	–

CCCCCCn1cc[n+](C)c1.N#Cc1ccc[n-]1 [1-hexyl-3-methylimidazolium 2-cyanopyrrolide] + CCCCCCCCCCCCCC[P+](CCCCCC)(CCCCCC)CCCCCC.O=S(=O)([N-]S(=O)(=O)C(F)(F)F)C(F)(F)F
viscosity [mPa·s]
Details	278.15 K	283.15 K	288.15 K	293.15 K	298.15 K	303.15 K	308.15 K	313.15 K	318.15 K	323.15 K
x1 = 0.1	1166	806	568	410	303	229	176	138	110	89
x1 = 0.2	1261	867	605	435	320	241	185	145	115	93
x1 = 0.3	1258	851	589	419	307	230	176	137	109	87
x1 = 0.399	1299	876	602	426	310	231	177	137	109	88
x1 = 0.499	1275	846	575	404	292	216	164	127	100	81
x1 = 0.6	1379	905	612	423	304	224	169	130	102	82
x1 = 0.7	1410	910	603	416	295	216	162	125	97	78
x1 = 0.8	1397	877	571	387	271	196	146	112	87	69
x1 = 0.9	1461	893	566	374	257	183	135	101	79	62
x1 = 1	1540	902	553	355	239	167	122	91	70	55

CCCCCCn1cc[n+](C)c1.O=[N+]([O-])c1cn[n-]c1 [1-hexyl-3-methylimidazolium 4-nitropyrazolide] + CCCCCCCCCCCCCC[P+](CCCCCC)(CCCCCC)CCCCCC.O=S(=O)([N-]S(=O)(=O)C(F)(F)F)C(F)(F)F
Details	mass density, x1 = 0.25 [kg/m3]	mass density, x1 = 0.5 [kg/m3]	mass density, x1 = 0.749 [kg/m3]	viscosity, x1 = 0.101 [mPa·s]	viscosity, x1 = 0.299 [mPa·s]	viscosity, x1 = 0.5 [mPa·s]	viscosity, x1 = 0.7 [mPa·s]	viscosity, x1 = 0.9 [mPa·s]
278.15 K	–	–	–	1201	1360	1582	2039	2649
283.15 K	1081.8	1090.7	1105.6	816	914	1045	1290	1540
288.15 K	1078.2	1087.1	1102	570	629	707	840	935
293.15 K	1074.6	1083.6	1098.5	410	445	492	566	597
295.15 K	1073.1	1082.2	1097.2	–	–	–	–	–
298.15 K	1071	1080.1	1095.2	302	323	352	395	400
303.15 K	1067.4	1076.6	1091.7	228	241	259	285	278
308.15 K	1063.8	1073.1	1088.3	175	184	195	211	200
313.15 K	1060.3	1069.6	1084.9	138	142	150	160	149
318.15 K	1056.8	1066.2	1081.6	110	113	118	124	113
323.15 K	1053.4	1062.8	1078.3	90	91	94	99	89
328.15 K	1049.9	1059.4	1075	–	–	–	–	–
333.15 K	1046.4	1056	1071.7	–	–	–	–	–
338.15 K	1042.9	1052.6	1068.3	–	–	–	–	–
343.15 K	1039.4	1049.2	1065	–	–	–	–	–
348.15 K	1035.9	1045.8	1061.7	–	–	–	–	–
353.15 K	1032.5	1042.4	1058.5	–	–	–	–	–
